The source of these data is US10335409B2 (priority 2012, dated 2019).

Common to all, as to type: cell-based, hepatitis C virus
Assay [1] concerns genotype 3a (S52) stable HCV replicon in Huh-7-derived cells. Nature of the assay: Stable subgenomic HCV replicon EC50, genotype 3a (Renilla luciferase). As to conditions: Hepatitis C virus, 72 h, read-out: EC50 3A RLUC. Here is the method:
(§1) Antiviral potency (EC50) was determined in both stable subgenomic HCV replicon cell lines and transient-transfected HCV replicon cells. The term half maximal effective concentration (EC50) refers to the concentration of a drug which induces a response halfway between the baseline and maximum after the exposure time specified below.
(§2) Stable subgenomic HCV replicons for genotype 1a, 1b, 2a, 3a, and 4a were established in Huh-7-derived cells as described by Lohmann et al (Lohmann V, Korner F, Koch J, et al Replication of subgenomic hepatitis C virus RNAs in a hepatoma cell line. Science 1999; 285:119-3) Each stable cell line contains a bicistronic HCV replicon that encodes a humanized Renilla luciferase (hRLuc) reporter gene fused to a selectable neomycin-resistance gene, followed by an EMCV IRES and the NS3-NS5B coding region of HCV. […] Luciferase activity was measured as a marker for intracellular HCV replication levels.
(§3) The genotype 1a stable replicon was derived from the H77 HCV strain and contained adaptive mutations P1496L and S2204I. The genotype 1b stable replicon was derived from the Con1 HCV strain and contained adaptive mutations E1202G, T1280I and K1846T. […] The genotype 3a stable replicon was derived from the S52 HCV strain and contained adaptive mutations P1121L, A1198T and S2210I (equivalent to S2204I in genotype 1). The genotype 4a stable replicon was derived from the ED43 HCV strain and contained adaptive mutations Q1691R and S2204I. All replicon cell lines were propagated in Huh-7-derived cells and maintained in Dulbecco's modified Eagle's Medium (DMEM) supplemented with 10% fetal bovine serum (FBS) and 0.5 mg/mL G418.
(§4) To perform EC50 assays, cells from each HCV replicon were dispensed into 384-well plates. Compounds were dissolved in DMSO at a concentration of 10 mM and diluted in DMSO using an automated pipetting instrument. Three-fold serially diluted compounds were directly added to the cells using an automated instrument. […] Seventy-two hours later, cells were lysed and Renilla luciferase activity were quantified as recommended by the manufacturer (Promega-Madison, Wis.). Non-linear regression was performed to calculate EC50 values.
(In general: Replicon systems follow genome replication, usually without infectious particles.)

Assay [2] concerns genotype 1a (H77) wild type transient HCV replicon in Huh-7-derived cells. Nature of the assay: Transient-transfected HCV replicon EC50, genotype 1a wild type. As to conditions: Hepatitis C virus, 72 h, read-out: EC50 1A WT.
Assay [3] relates to genotype 1b (Con1) wild type transient HCV replicon in Huh-7-derived cells. Nature of the assay: Transient-transfected HCV replicon EC50, genotype 1b wild type. As to conditions: Hepatitis C virus, 72 h, read-out: EC50 1B WT.
For assay [4], the system named is genotype 1a (H77) stable HCV replicon in Huh-7-derived cells. Nature of the assay: Stable subgenomic HCV replicon EC50, genotype 1a (Renilla luciferase). As to conditions: Hepatitis C virus, stable replicon genotype 1a, 72 h, read-out: EC50 1A RLUC. How it is done: as §1, §2, §3, §4
Assay [5] deals with genotype 4a (ED43) stable HCV replicon in Huh-7-derived cells. Nature of the assay: Stable subgenomic HCV replicon EC50, genotype 4a (Renilla luciferase). As to conditions: Hepatitis C virus, 72 h, read-out: EC50 4A RLUC. Here is the method: as §1, §2, §3, §4
Assay [6] has as its system genotype 1a NS3/4a protease inhibitor resistant variant R155K transient HCV replicon in Huh-7-derived cells. Nature of the assay: Transient-transfected HCV replicon EC50, genotype 1a R155K. To be noted: Hepatitis C virus, 72 h, read-out: EC50 1A R155K, transient-transfected replicon genotype 1a R155K resistant variant, 72 h.
Assay [7] deals with genotype 1b (Con1) stable HCV replicon in Huh-7-derived cells. Briefly: Stable subgenomic HCV replicon EC50, genotype 1b (Renilla luciferase). To be noted: Hepatitis C virus, stable replicon genotype 1b, 72 h, read-out: EC50 1B RLUC. How it is done: as §1, §2, §3, §4
The subject of assay [8] is genotype 1b NS3/4a protease inhibitor resistant variant D168A transient HCV replicon in Huh-7-derived cells. Briefly: Transient-transfected HCV replicon EC50, genotype 1b D168A. To be noted: Hepatitis C virus, 72 h, read-out: EC50 1B D168A, transient-transfected replicon genotype 1b D168A resistant variant, 72 h.
For assay [9], the system named is genotype 2a (JFH-1) stable HCV replicon in Huh-7-derived cells. Nature of the assay: Stable subgenomic HCV replicon EC50, genotype 2a (Renilla luciferase). As to conditions: Hepatitis C virus, stable replicon genotype 2a, 72 h, read-out: EC50 2A RLUC. Here is the method:
as §1, §2, §3, §4

[10] abbreviates: transient-transfected replicon genotype 1a wild type.
The mark [11] stands for this setting: transient-transfected replicon genotype 1b wild type.

For orientation: EC50 means the concentration giving half of the maximal effect.

Like-named read-outs stand apart in the source and are kept apart here.

`CC[C@@H]1[C@@H]2CN(C(=O)[C@H](C(C)(C)C)NC(=O)O[C@@H]3CCC[C@H]3CCCCCc3nc4ccc(OC)cc4nc3O2)[C@@H]1C(=O)N[C@]1(C(=O)NS(=O)(=O)C2(C)CC2)C[C@H]1C(F)F` [Example 6, (3aR,7S,10S,11S,12R,24aR)-7-tert-butyl-N-[(1R,2R)-2-(difluoromethyl)-1-{[(1-methylcyclopropyl)sulfonyl]carbamoyl}cyclopropyl]-11-ethyl-16-methoxy-5,8-dioxo-1,2,3,3a,5,6,7,8,11,12,20,21,22,23,24,24a-hexadecahydro-10H-9,12-methanocyclopenta[18,19][1,10,3,6] dioxadiazacyclononadecino[11,12-b]quinoxaline-10-carboxamide]: the EC50 in assay [1] was 1360 nM; in [2] (setting [10]), 26 nM; in [3] (setting [11]), 11 nM; in [4] it was 35 nM; in [5], 34 nM; in assay [6], 58 nM. Also, the EC50 turned out to be 36 nM in [7], 216 nM in assay [8] and 34 nM in assay [9].

On to `CC[C@@H]1[C@@H]2CN(C(=O)[C@H](C3CCCC3)NC(=O)O[C@@H]3C[C@H]3CCCCCc3nc4ccc(OC)cc4nc3O2)[C@@H]1C(=O)N[C@]1(C(=O)NS(=O)(=O)C2CC2)C[C@H]1C(F)F` [Example 15, (1aR,5S,8S,9S,10R,22aR)-5-cyclopentyl-N-[(1R,2R)-1-[(cyclopropylsulfonyl)carbamoyl]-2-(difluoromethyl)cyclopropyl]-9-ethyl-14-methoxy-3,6-dioxo-1,1a,3,4,5,6,9,10,18,19,20,21,22,22a-tetradecahydro-8H-7,10-methanocyclopropa[18,19][1,10,3,6]dioxadiazacyclononadecino[11,12-b]quinoxaline-8-carboxamide], for which the EC50 turned out to be 550 nM in assay [1]; 6.5 nM in assay [2]; 3 nM in [3]; 11 nM in assay [4]; 7.8 nM in assay [5]; 20 nM in assay [6]. For the same compound, the figures for the EC50 in assay [7], in assay [8] and in [9] were 6.8 nM, 182 nM and 9.8 nM, respectively.

As to `COc1ccc2nc3c(nc2c1)O[C@H]1CN(C(=O)[C@H](C(C)(C)C)NC(=O)O[C@@H]2C[C@H]2CCCCC3)[C@H](C(=O)N[C@]2(C(=O)NS(=O)(=O)C3(C)CC3)C[C@H]2CCF)[C@@H]1C` [Example 23, (1aR,5S,8S,9S,10R,22aR)-5-tert-butyl-N-[(1R,2S)-2-(2-fluoroethyl)-1-{[(1-methylcyclopropyl)sulfonyl]carbamoyl}cyclopropyl]-14-methoxy-9-methyl-3,6-dioxo-1,1a,3,4,5,6,9,10,18,19,20,21,22,22a-tetradecahydro-8H-7,10-methanocyclopropa[18,19][1,10,3,6]dioxadiazacyclononadecino[11,12-b]quinoxaline-8-carboxamide], the EC50 came to 587 nM in assay [1]; 9.5 nM in assay [2] (setting [10]); 3.6 nM in [3] (setting [11]); 13 nM in [4]; 9.9 nM in assay [5]; 36 nM in assay [6]. Moreover, the EC50 in assay [7] worked out at 7.5 nM; in [8] it was 173 nM; in [9], 23 nM.

For `CC[C@@H]1C[C@]1(NC(=O)[C@@H]1[C@H](C)[C@@H]2CN1C(=O)[C@H](C(C)(C)C)NC(=O)O[C@@H]1C[C@H]1CCCCCc1nc3ccc(OC)cc3nc1O2)C(=O)NS(=O)(=O)C1(C)CC1` [Example 21, (1aR,5S,8S,9S,10R,22aR)-5-tert-butyl-N-[(1R,2R)-2-ethyl-1-{[(1-methylcyclopropyl)sulfonyl]carbamoyl}cyclopropyl]-14-methoxy-9-methyl-3,6-dioxo-1,1a,3,4,5,6,9,10,18,19,20,21,22,22a-tetradecahydro-8H-7,10-methanocyclopropa[18,19][1,10,3,6]dioxadiazacyclononadecino[11,12-b]quinoxaline-8-carboxamide], the EC50 in assay [1] was 263 nM; in assay [2] it was 4.1 nM; in [3], 3.8 nM; in assay [4], 6.8 nM; in assay [5] it was 6.2 nM; in assay [6] it was 15 nM. For the same compound, the EC50 in assay [7] amounted to 4.7 nM; in assay [8], 70 nM; in [9] it was 12 nM.

As to `CC[C@@H]1C[C@]1(NC(=O)[C@@H]1[C@H](C)[C@@H]2CN1C(=O)[C@H](C(C)(C)C)NC(=O)O[C@@H]1C[C@H]1CCCCCc1nc3ccc(OC)cc3nc1O2)C(=O)NS(=O)(=O)C1CC1` [Example 20, (1aR,5S,8S,9S,9S,10R,22aR)-5-tert-butyl-N-{(1R,2R)-1-[(cyclopropylsulfonyl)carbamoyl]-2-ethylcyclopropyl}-14-methoxy-9-methyl-3,6-dioxo-1,1a,3,4,5,6,9,10,18,19,20,21,22,22a-tetradecahydro-8H-7,10-methanocyclopropa[18,19][1,10,3,6]dioxadiazacyclononadecino[11,12-b]quinoxaline-8-carboxamide], the EC50 was found to be 392 nM in [1]; 3.4 nM in assay [2]; 2.7 nM in assay [3]; 8.1 nM in assay [4]; 5.9 nM in assay [5]; 17 nM in assay [6]. Also, the half-maximal effective concentration (EC50) in assay [7] stood at 5.2 nM; in [8] it was 90 nM; in assay [9], 19 nM.

As for `CC[C@@H]1[C@@H]2CN(C(=O)[C@H](C(C)(C)C)NC(=O)O[C@@H]3C[C@H]3CCCCCc3nc4ccc(OC)cc4nc3O2)[C@@H]1C(=O)N[C@]1(C(=O)NS(=O)(=O)C2CC2)C[C@H]1CC` [Example 3, (1aR,5S,8S,9S,10R,22aR)-5-tert-butyl-N-{(1R,2R)-1-[(cyclopropylsulfonyl)carbamoyl]-2-ethylcyclopropyl}-9-ethyl-14-methoxy-3,6-dioxo-1,1a,3,4,5,6,9,10,18,19,20,21,22,22a-tetradecahydro-8H-7,10-methanocyclopropa[18,19][1,10,3,6]dioxadiazacyclononadecino[11,12-b]quinoxaline-8-carboxamide], the EC50 came to 546 nM in [1]; 6.6 nM in assay [2] (setting [10]); 3.5 nM in [3] (setting [11]); 11.7 nM in assay [4]; 10 nM in assay [5]; 32 nM in assay [6]. Moreover, the EC50 in assay [7] stood at 9.8 nM; in assay [8] it was 128 nM; in assay [9] it was 28 nM.

`COc1ccc2nc3c(nc2c1)O[C@H]1CN(C(=O)[C@H](C(C)(C)C)NC(=O)O[C@@H]2CCC[C@H]2CCCCC3)[C@H](C(=O)N[C@]2(C(=O)NS(=O)(=O)C3CC3)C[C@H]2C(F)F)[C@@H]1C` [Example 28, (3aR,7S,10S,11S,12R,24aR)-7-tert-butyl-N-[(1R,2R)-1-[(cyclopropylsulfonyl)carbamoyl]-2-(difluoromethyl)cyclopropyl]-16-methoxy-11-methyl-5,8-dioxo-1,2,3,3a,5,6,7,8,11,12,20,21,22,23,24,24a-hexadecahydro-10H-9,12-methanocyclopenta[18,19][1,10,3,6]dioxadiazacyclononadecino[11,12-b]quinoxaline-10-carboxamide]: the EC50 in [1] came out at 266 nM; in assay [2] (setting [10]), 3 nM; in [3] (setting [11]), 3.4 nM; in assay [4], 6.7 nM; in [5], 4.1 nM; in assay [6], 9 nM. Besides, the EC50 was determined as 4.6 nM in assay [7], 54 nM in assay [8] and 6.2 nM in assay [9].
